Laboratory results reported in patent publication US6441177B1 (Hoffmann-La Roche Inc., priority 1995, dated 2002).
Converted amounts (≈) assume the structure as drawn. Where two headings read alike, the source gives them in different places.

What was measured:
[1] = biological target: T1, human liver microsomal 2,3-oxidosqualene-lanosterol cyclase (OSC) (Homo sapiens, UniProt P48449); assay: Inhibition of human liver microsomal 2,3-oxidosqualene-lanosterol cyclase (OSC); type: biochemical; details: human liver microsomes; for IC50: concentration reducing conversion of MOS into lanosterol to 50% of control; for inhibition at 0.1 µM: constant test substance concentration of 100 nM, 1 hour at 37° C., against controls
T1 construct: Liver microsomes from a healthy volunteer were prepared in sodium phosphate buffer (pH 7.4); from tissue; host or cells: human liver microsomes from a healthy volunteer
T1 sequence (P48449 1-732): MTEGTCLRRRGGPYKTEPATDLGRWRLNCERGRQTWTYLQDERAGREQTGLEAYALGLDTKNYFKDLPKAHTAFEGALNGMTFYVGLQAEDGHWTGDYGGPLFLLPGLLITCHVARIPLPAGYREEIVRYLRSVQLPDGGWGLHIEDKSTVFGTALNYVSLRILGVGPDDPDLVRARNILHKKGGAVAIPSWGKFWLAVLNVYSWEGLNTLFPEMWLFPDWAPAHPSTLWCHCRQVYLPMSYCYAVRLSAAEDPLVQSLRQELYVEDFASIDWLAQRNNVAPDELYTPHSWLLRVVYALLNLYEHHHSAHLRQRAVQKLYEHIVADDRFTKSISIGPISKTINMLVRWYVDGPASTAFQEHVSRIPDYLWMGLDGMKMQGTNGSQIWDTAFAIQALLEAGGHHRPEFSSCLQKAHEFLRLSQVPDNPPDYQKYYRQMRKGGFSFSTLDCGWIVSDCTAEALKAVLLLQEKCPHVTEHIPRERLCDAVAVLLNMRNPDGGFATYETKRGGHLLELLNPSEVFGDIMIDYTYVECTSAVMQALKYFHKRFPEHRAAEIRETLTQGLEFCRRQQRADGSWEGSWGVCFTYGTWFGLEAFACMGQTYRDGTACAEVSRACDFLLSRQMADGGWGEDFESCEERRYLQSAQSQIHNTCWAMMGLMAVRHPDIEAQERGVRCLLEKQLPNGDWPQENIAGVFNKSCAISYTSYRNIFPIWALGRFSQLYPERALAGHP
Method: Inhibition of Human Liver Microsomal 2,3-Oxidosqualene-lanosterol Cyclase (OSC)
Liver microsomes from a healthy volunteer were prepared in sodium phosphate buffer (pH 7.4). The OSC activity was measured in the same buffer which also contained 1 mM EDTA and 1 mM dithiothreitol. The microsomes were diluted to 0.8 mg/ml protein in cold phosphate buffer. Dry [^14C]R,S-monooxidosqualene (MOS; 12.8 mCi/mmol) was diluted to 20 nCi/μl with ethanol and mixed with phosphate buffer-1% BSA (Bovine Serum Albumin). A stock solution of 1 mM test substance in DMSO was diluted to the desired concentration with phosphate buffer-1% BSA. 40 μl of microsomes were mixed with 20 μl of the solution of the test substance and the reaction was subsequently started with 20 μl of the [^14C]R,S-MOS solution. The final conditions were: 0.4 mg/ml of microsomal proteins and […] of [^14C]R,S-MOS in phosphate buffer, pH 7.4, containing 0.5% albumin, DMSO <0.1% and ethanol <2%, in a total volume of 80 μl.
After 1 hour at 37° C. the reaction was stopped by the addition of 0.6 ml of 10% KOH-methanol, 0.7 ml of water and 0.1 ml of hexane:ether (1:1, v/v) which contained 25 μg of non-radioactive MOS and 25 μg of lanosterol as the carrier. After shaking 1 ml of hexane:ether (1:1, v/v) was added to each test tube, these were again shaken and then centrifuged. The upper phase was transferred into a glass test tube, the lower phase was again extracted with hexane:ether and combined with the first extract. The entire extract was evaporated to dryness with nitrogen and the residue was suspended in 50 μl of hexane:ether and applied to a silica gel plate. Chromatographic separation was effected in hexane:ether (1:1, v/v) as the eluent. […] After drying radioactive MOS and lanosterol were observed on the silica gel plate. The ratio of MOS to lanosterol was determined from the radioactive bands in order to determine the OSC inhibition.
The test was carried out on the one hand with a constant test substance concentration of 100 nM and the percentage OSC inhibition against controls was calculated. In addition, the test was carried out with different test substance concentrations and subsequently the IC50 value was calculated, i.e. the concentration required to reduce the conversion of MOS into lanosterol to 50% of the control value.

Candida albicans = assay: Antifungal activity in vitro, microdilution method; type: cell-based; details: growth inhibition
Method: (§1) Antifungal Activity In Vitro The compounds were tested for antifungal activity against Candida albicans, Cryptococcus neoformans and Aspergillus fumigatus using a microdilution method on microtitre plates (96 wells per plate). Yeast supplemented with 1% glucose and 0.25% di-potassium phosphate was used for the three fungal strains. The fungal cells were inoculated at 3×10^4 CFU (Colony Forming Unit) in […] of medium per well. The medium contained increasing concentrations of test substance. After incubation at 27° C. for 24 or 48 hours the turbidity in each well was measured by a microtitre plate reader. The growth inhibition was calculated in comparison to a control (without test substance). The IC50 value given in the following Table is the concentration of test substance at which the growth is inhibited by 50%.

Cryptococcus neoformans = assay: Antifungal activity in vitro, microdilution method; type: cell-based; details: growth inhibition, incubation at 27° C. for 48 hours, read-out: IC50 (mg/ml) for: C. neoformans after: 48 hours
Method: as §1

Aspergillus fumigatus = assay: Antifungal activity in vitro, microdilution method; type: cell-based; details: growth inhibition, incubation at 27° C. for 48 hours, read-out: IC50 (mg/ml) for: A. fumigatus after: 48 hours
Method: as §1

[2] = incubation at 27° C. for 24 hrs., read-out: IC50 (mg/ml) for: C. albicans after: 24 hrs.
[3] = incubation at 27° C. for 48 hrs., read-out: IC50 (mg/ml) for: C. albicans after: 48 hrs.

| SMILES | IC50 [1] | inhibition at 0.1 µM [1] | also measured |
| --- | --- | --- | --- |
| C=CCN(C)C/C=C/COc1ccc(C(O)(C=C)c2ccc(Br)cc2)cc1 (racemic) [Example 8b, (E)-(RS)-1-[4-[4-(allyl-methyl-amino)-but-2-enyloxy]-phenyl]-1-(4-bromo-phenyl)-prop-2-en-1-ol] | 23.7 nM | 78% |  |
| CN(C[C@@H]1C[C@H]1COc1ccc(C(=O)c2ccc(Br)cc2)cc1)C1CC1 (racemic) [Example 31, (1RS,2RS)-(4-bromo-phenyl)-[4-[2-[(cyclopropyl-methyl-amino)-methyl]-cyclopropylmethoxy]-phenyl]-methanone] | 22 nM | 85% |  |
| CN(C[C@@H]1C[C@H]1COc1ccc(C(=O)c2ccc(Br)cc2)cc1F)C1CC1 (racemic) [Example 32a, (1RS,2RS)-(4-bromo-phenyl)-[4-[2-[(cyclopropyl-methyl-amino)-methyl]-cyclopropylmethoxy]-3-fluoro-phenyl]-methanone] | 3.6 nM | 85% |  |
| C=CCN(C)CCCCCCOc1ccc(C(C)(O)c2ccc(Br)cc2)c(F)c1 (racemic) [Example 38, (RS)-1-[4-[6-(allyl-methyl-amino)-hexyloxy]-2-fluoro-phenyl]-1-(4-bromo-phenyl)-ethanol] | 21 nM | 82% |  |
| C=CCN(C)C/C=C/COc1ccc(C(C)(O)CCC=C(C)C)cc1 (racemic) [Example 39a, (E)-(RS)-2-[4-[4-(allyl-methyl-amino)-but-2-enyloxy]-phenyl]-6-methyl-hept-5-en-2-ol] | 12.3 nM | 87% |  |
| C=CCN(C)Cc1ccc(-c2ccc(C(F)c3ccc(Br)cc3)cc2)cc1 (racemic) [Example 48, (RS)-allyl-[4′-[(4-bromo-phenyl)-fluoro-methyl]-biphenyl-4-ylmethyl]-methyl-amine] |  |  | IC50 (Candida albicans; [2]): < 0.00032 mg/mL; IC50 (Candida albicans; [3]): < 0.00032 mg/mL; IC50 (Cryptococcus neoformans): 0.00047 mg/mL (≈ 1.11 µM); IC50 (Aspergillus fumigatus): 0.018 mg/mL (≈ 42.4 µM) |
| C=CCN(C)C/C=C/COc1cc(F)c(C(=O)c2ccc(Br)cc2)cc1F [Example 1, (E)-[4-[4-(allyl-methyl-amino)-but-2-enyloxy]-2,5-difluoro-phenyl]-(4-bromo-phenyl)-methanone] | 2.4 nM | 90% |  |
| O=C(c1ccc(Br)cc1)c1ccc(OC/C=C/CN2CCC(O)CC2)cc1 [Example 2l, (E)-(4-bromo-phenyl)-[4-[4-(4-hydroxy-piperidin-1-yl)-but-2-enyloxy]-phenyl]-methanone] |  | 81% |  |
| CN(CCCCCCOc1ccc(C(=O)c2ccc(Br)cc2)c(F)c1)C1CC1 [Example 2p, (4-bromo-phenyl)-[4-[6-(cyclopropyl-methyl-amino)-hexyloxy]-2-fluoro-phenyl]-methanone] |  | 66% |  |
| C=CCN(C)CCCCCCOc1ccc(C(=O)c2ccc(Br)cc2)c(SC)c1 [Example 3, [4-[6-(allyl-methyl-amino)-hexyloxy]-2-methylsulphanyl-phenyl]-(4-bromo-phenyl)-methanone] | 4.9 nM | 92% |  |
| C=CCN(C)C/C=C/COc1ccc(C(=C)c2ccc(Br)cc2)cc1 [Example 8f, (E)-allyl-[4-[4-[1-(4-bromo-phenyl)-vinyl]-phenoxy]-but-2-enyl]-methyl-amine] | 13.5 nM | 90% |  |
| CN(CCCCCCOc1ccccc1C(=O)c1ccc(Br)cc1)C1CC1 [Example 13a, [6-[6-(cyclopropyl-methyl-amino)-hexyloxy]-phenyl]-(4-bromo-phenyl)-methanone] |  | 82% |  |
| CN(C/C=C/COc1ccc(C(=O)c2ccc(C#N)cc2)cc1F)C1CC1 [Example 13b, (E)-4-[4-[4-(cyclopropyl-methyl-amino)-but-2-enyloxy]-3-fluoro-benzoyl]-benzonitrile] | 7.9 nM | 93.5% |  |
| CN(CCCCCCOc1ccc(C(=O)c2ccc(Br)cc2)cc1)CC1CC1 [Example 15, (4-bromo-phenyl)-[4-[6-(cyclopropylmethyl-methyl-amino)-hexyloxy]-phenyl]-methanone] | 32 nM | 83% |  |
| C=CCN(C)C/C=C/COc1ccc(C(=O)/C=C/C=C(C)C)cc1F [Example 25, (E)-1-[4-[(E)-4-(allyl-methyl-amino)-but-2-enyloxy]-3-fluoro-phenyl]-5-methyl-hexa-2,4-dien-1-one] |  |  | IC50 (Candida albicans; [2]): 0.00032 mg/mL (≈ 0.932 µM); IC50 (Candida albicans; [3]): < 0.00032 mg/mL; IC50 (Cryptococcus neoformans): 0.001 mg/mL (≈ 2.91 µM); IC50 (Aspergillus fumigatus): 0.00082 mg/mL (≈ 2.39 µM) |
| C=CCN(C)C/C=C/COc1ccc(C(=O)/C=C/C=C(C)C)cc1 [Example 26c, (E)-1-[4-[(E)-4-(allyl-methyl-amino)-but-2-enyloxy]-phenyl]-5-methyl-hexa-2,4-dien-1-one] |  |  | IC50 (Candida albicans; [2]): 0.00049 mg/mL (≈ 1.51 µM); IC50 (Candida albicans; [3]): 0.0057 mg/mL (≈ 17.5 µM); IC50 (Cryptococcus neoformans): 0.0027 mg/mL (≈ 8.3 µM); IC50 (Aspergillus fumigatus): 0.0084 mg/mL (≈ 25.8 µM) |
| C=CCN(C)CCCCCCNc1ccc(C(=O)c2ccc(Br)cc2)cc1F [Example 30, [4-[6-(allyl-methyl-amino)-hexylamino]-3-fluoro-phenyl]-(4-bromo-phenyl)-methanone] | 3.2 nM | 93% |  |
| C=CCN(C)CCCCCCOc1ccc(C(=O)c2ccc(Br)cc2)c(NC)c1 [Example 33, [4-[6-(allyl-methyl-amino)-hexyloxy]-2-methylamino-phenyl]-(4-bromo-phenyl)-methanone] | 2.3 nM | 98% |  |
| C=CCN(C)CCCCCCOc1ccc(C(=O)c2ccc(Br)cc2)c(N(C)C)c1 [Example 34a, [4-[6-(allyl-methyl-amino)-hexyloxy]-2-dimethylamino-phenyl]-(4-bromo-phenyl)-methanone] | 7.1 nM | 98% |  |
| C=CCN(C)CCCCCCOc1ccc(C(=O)c2ccc(Br)cc2)c(O)c1 [Example 35, [4-[6-(allyl-methyl-amino)-hexyloxy]-2-hydroxy-phenyl]-(4-bromo-phenyl)-methanone] |  | 97% |  |
| C=CCN(C)CCCCCCOC1CCN(S(=O)(=O)c2ccc(Br)cc2)CC1 [Example 49, allyl-[6-[1-(4-bromo-phenylsulphonyl)-piperidin-4-yloxy]-hexyl]-methyl-amine] | 5.5 nM | 94% |  |
| C=CCN(C)C/C=C/COc1ccc(C(=NOC)c2ccc(Br)cc2)cc1 [Example 51, (E)-and/or (Z)-[4-[(E)-4-(ally-methyl-amino)-but-2-enyloxy]-phenyl]-(4-bromo-phenyl)-methanone-0-methyl-oxime] | 12.8 nM | 87.5% |  |
